Data reported in patent publication US20250154198A1, “PEPTIDE INHIBITORS OF INTERLEUKIN-23 RECEPTOR” (Zealand Pharma A/S, priority 2021, published 2025).
*1 amine or outer side, *2 acyl side, *3 side chain or, on linkers, in order; H or OH if unused. Where a SMILES comes first, the peptide text is derived from it. Bridges are numbered along the chain shown (N, C = ends). [ ]: non-standard residue; d: D form. The star is where a group is joined. Ala(quinolin-3-yl) = N[C@@H](Cc1cnc2ccccc2c1)C(=O)O; Trp(7-F) = N[C@@H](Cc1c[nH]c2c(F)cccc12)C(=O)O; 2Nal = N[C@@H](Cc1ccc2ccccc2c1)C(=O)O; AEF = NCCOc1ccc(C[C@H](N)C(=O)O)cc1; X1 = O=C(Cc1ccc(CN[*:1])cc1)[*:2]; 3Pal = N[C@@H](Cc1cccnc1)C(=O)O; X22 = NC(=O)C[C@@H](N*)c1cccnc1; d3Pal = N[C@H](Cc1cccnc1)C(=O)O; αMeL = CC(C)C[C@](C)(N)C(=O)O; CH2COCH2 = O=C(C[*:1])C[*:2]; αMeV = CC(C)[C@](C)(N)C(=O)O; 3Amb = NCc1cccc(C(=O)O)c1; Pyrrolidide = C1CCN(*)C1; Dab = NCC[C@H](N)C(=O)O

Biological target: T1, human IL-23R (Homo sapiens, UniProt Q5VWK5)
T1 construct: UniProtKB—Q5VWK5, amino acids 22-629; secretion signal of the plasmid (Promega N1371); expressed in transfected cells
T1 sequence (Q5VWK5 22-629): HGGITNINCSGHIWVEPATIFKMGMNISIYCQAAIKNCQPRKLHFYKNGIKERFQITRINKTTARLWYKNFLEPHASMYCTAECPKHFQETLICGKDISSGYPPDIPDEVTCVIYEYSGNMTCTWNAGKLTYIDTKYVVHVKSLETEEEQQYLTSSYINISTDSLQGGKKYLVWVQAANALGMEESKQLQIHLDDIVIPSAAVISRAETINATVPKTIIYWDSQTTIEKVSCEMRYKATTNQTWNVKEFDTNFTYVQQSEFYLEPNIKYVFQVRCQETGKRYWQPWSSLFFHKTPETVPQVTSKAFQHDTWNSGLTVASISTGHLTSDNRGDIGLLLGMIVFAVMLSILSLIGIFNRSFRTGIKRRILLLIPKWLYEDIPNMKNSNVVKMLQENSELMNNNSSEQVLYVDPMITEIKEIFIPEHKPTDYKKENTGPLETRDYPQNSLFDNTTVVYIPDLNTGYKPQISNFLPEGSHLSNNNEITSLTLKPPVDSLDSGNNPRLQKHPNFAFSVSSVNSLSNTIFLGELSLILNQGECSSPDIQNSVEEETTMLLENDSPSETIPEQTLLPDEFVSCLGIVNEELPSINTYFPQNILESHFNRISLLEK
Assay: Binding assay (NanoBRET displacement of fluorophore-labelled reference compound) for estimating binding affinity to human IL-23R
Details: Table 3-1; read-out: Ki hIL-23R
From the text: Binding Assay for Estimating Binding Affinity of Compounds to Human IL-23R
The compound binding affinity for IL-23R was estimated by the ability of compounds to displace a fluorophore-labelled reference compound from the human IL-23R. The assay principle relies on Bioluminescence Resonance Energy Transfer (BRET) between a fluorophore-labelled reference compound binding to the IL-23R part of a fusion protein consisting of the IL-23R fused to a Nanoluc luciferase enzyme (Nanoluc). The Nanoluc is placed in the N-terminus in close proximity to the binding domain of the ligand. Upon close proximity between the fluorophore of the fluorophore-labelled compound and the Nanoluc of the fusion protein, bioluminescence energy generated from conversion of a Nanoluc substrate, is transferred to the fluorophore resulting in an increase in BRET. In presence of an unlabelled compound, the unlabelled compound displaces the fluorophore-labelled peptide from its binding site resulting in a decrease in BRET. The concentration for which half of the fluorophore-labelled peptide is displaced by the unlabelled compound depends on the affinity of the compound for the IL-23R, and is termed the IC50 concentration. An estimated affinity (K) of the unlabelled compound for the IL-23R may be calculated using the Cheng-Prussov equation, which takes into account the concentration of the fluorophore-labelled compound used, and the affinity of the fluorophore-labelled compound for IL-23R.
The plasmid also contained a gene to confer resistance for the antibiotic hygromycin. A cell line stably expressing the Nluc-IL23R fusion protein was generated by transfection of HEK293 cells with the expression plasmid and selected with hygromycin for 3 weeks in Growth medium consisting of DMEM w/Glutamax-I containing, 10% V/V FBS, 1% V/V P/S, 1 mM Sodium Pyruvate, and 1×NEAA, and 0.3 mg/mL hygromycin. The remaining cells were propagated and considered a stable expressing Nluc-IL23R fusion protein pool clone.
Cells expressing the Nluc-IL23R fusion protein were expanded in Growth medium and membranes prepared by homogenization of a cell pellet from 18 T175 flasks (4° C. in subsequent steps). The cell pellet was lysed Tris 10 mM, 7.5, 1 mM EDTA and protease inhibitors (Complete, Roche) and homogenized using a 15 mL glass-dounce by 50 strokes. The homogenate was spun at spin @1500 rpm for 10 min, the supernatant transferred to SV-34 tubes and spun at 40000 g for 20 min at 4° C. to pellet the crude membranes. The supernatant was then removed, the pellet resuspended in 5 mL buffer containing 50 mM HEPES pH 7.4, 5 mM EGTA, and 5 mM MgCl2, and homogenized. Aliquots of the resuspended and homogenized membranes containing the Nluc-IL23R fusion protein were stored at −80° C. until use.
The plate was sealed with light impermeable plate seals, and incubated on a orbital shaker 400 rpm for 2 hours at room temperature. To determine the BRET ratio, the plate seal was removed and 25 μL of the Nanoluc substrate (Promega N1572) diluted 1:500 was added to each well and incubated for 1-2 minutes on an orbital shaker at 400 rpm. […] The BRET ratio was calculated as the fluorescence from the TAMRA/nanoluc bioluminescence. The IC50 for each compound was determined by computer-aided curve fitting using a 4-parameter logistic (4PL) non-linear model.

Row | Ki | SMILES
1 | 0.612 nM | CC(C)C[C@]1(C)NC(=O)[C@H](Cc2ccc3ccccc3c2)NC(=O)[C@H](Cc2ccc(OCCN)cc2)NC(=O)[C@@H]2CCNC(=O)CC[C@H](NC(=O)[C@H](CO)NC(=O)Cc3ccc(cc3)CNC(=O)CC[C@@H](C(=O)N[C@@H](CCN)C(N)=O)NC1=O)C(=O)N[C@@H](Cc1c[nH]c3c(F)cccc13)C(=O)N[C@@H](CCC(N)=O)C(=O)N2 [Compound 139, [4-Aminomethyl-phenylacetyl](1c)*SE(2c)[7-F-Trp]Q[Dab](2c)[Y(2-aminoethoxy)][2-Nal][2-Me-Leu]E(1c)[Dab]-[NH2]] ([X1]SE[Trp(7-F)]Q[Dab][AEF][2Nal][αMeL]E[Dab]-NH2; lactam 3-6, N-10)
2 | 0.723 nM | CC(C)C[C@]1(C)NC(=O)[C@H](Cc2ccc3ccccc3c2)NC(=O)[C@H](Cc2ccc(OCCN)cc2)NC(=O)[C@@H]2CCNC(=O)CC[C@H](NC(=O)[C@H](CCC(=O)N3CCCC3)NC(=O)Cc3ccc(cc3)CNC(=O)CC[C@@H](C(=O)N[C@@H](CCN)C(N)=O)NC1=O)C(=O)N[C@@H](Cc1c[nH]c3ccccc13)C(=O)N[C@@H](CCC(N)=O)C(=O)N2 [Compound 145, [4-Aminomethyl-phenylacetyl](1c)*[Q(pyrrolidin)]E(2c)WQ[Dab](2c)[Y(2-aminoethoxy)][2-Nal][2-Me-Leu]E(1c)[Dab]-[NH2]] ([X1]E(Pyrrolidide)EWQ[Dab][AEF][2Nal][αMeL]E[Dab]-NH2; lactam 3-6, N-10)
3 | 1.01 nM | CC(C)C[C@]1(C)NC(=O)[C@H](Cc2ccc3ccccc3c2)NC(=O)[C@H](Cc2ccc(OCCN)cc2)NC(=O)[C@@H]2CCNC(=O)CC[C@H](NC(=O)[C@H](CO)NC(=O)Cc3ccc(cc3)CNC(=O)CC[C@@H](C(=O)N[C@@H](CCN)C(N)=O)NC1=O)C(=O)N[C@@H](Cc1c[nH]c3ccccc13)C(=O)N[C@@H](CCC(=O)N1CCCC1)C(=O)N2 [Compound 146, [4-Aminomethyl-phenylacetyl](1c)*SE(2c)W[Q(pyrrolidin)][Dab](2c)[Y(2-aminoethoxy)][2-Nal][2-Me-Leu]E(1c)[Dab]-[NH2]] ([X1]SEWE(Pyrrolidide)[Dab][AEF][2Nal][αMeL]E[Dab]-NH2; lactam 3-6, N-10)
4 | 0.0119 nM | CC(C)C[C@]1(C)NC(=O)[C@H](Cc2ccc3ccccc3c2)NC(=O)[C@H](Cc2ccc(OCCN)cc2)NC(=O)[C@@H]2CSCC(=O)CSC[C@H](NC(=O)[C@H](CO)NC(=O)Cc3ccc(cc3)CNC(=O)CC[C@@H](C(=O)N[C@@H](CCCNC(=N)N)C(=O)N[C@@H](Cc3cccnc3)C(N)=O)NC1=O)C(=O)N[C@@H](Cc1c[nH]c3ccccc13)C(=O)N[C@@H](CCC(N)=O)C(=O)N2 [Compound 147, [4-Aminomethyl-phenylacetyl](1c)*SC(2a)WQC(2a)[Y(2-aminoethoxy)][2-Nal][2-Me-Leu]E(1c)R[3-(3-Pyridyl)-Ala]-[NH2]] ([X1]SCWQC[AEF][2Nal][αMeL]ER[3Pal]-NH2; linker 3-6 via CH2COCH2; lactam N-10)
5 | 0.00897 nM | CC(C)C[C@]1(C)NC(=O)[C@H](Cc2ccc3ccccc3c2)NC(=O)[C@H](Cc2ccc(OCCN)cc2)NC(=O)[C@@H]2CSCC(=O)CSC[C@H](NC(=O)[C@H](CO)NC(=O)c3cccc(c3)CNC(=O)CC[C@@H](C(=O)N[C@@H](CCN)C(=O)N[C@@H](Cc3cccnc3)C(N)=O)NC1=O)C(=O)N[C@@H](Cc1c[nH]c3ccccc13)C(=O)N[C@@H](CCC(N)=O)C(=O)N2 [Compound 148, [(3-Aminomethyl)benzoyl](1c)*SC(2a)WQC(2a)[Y(2-aminoethoxy)][2-Nal][2-Me-Leu]E(1c)[Dab][3-(3-Pyridyl)-Ala]-[NH2]] ([3Amb]SCWQC[AEF][2Nal][αMeL]E[Dab][3Pal]-NH2; linker 3-6 via CH2COCH2; lactam N-10)
6 | 0.163 nM | CC(C)C[C@]1(C)NC(=O)[C@H](Cc2ccc3ccccc3c2)NC(=O)[C@H](Cc2ccc(OCCN)cc2)NC(=O)[C@@H]2CSCC(=O)CSC[C@H](NC(=O)[C@H](CO)NC(=O)c3cccc(c3)CNC(=O)CC[C@@H](C(=O)N[C@@H](CCCNC(=N)N)C(=O)N[C@@H](Cc3cnc4ccccc4c3)C(N)=O)NC1=O)C(=O)N[C@@H](Cc1c[nH]c3ccccc13)C(=O)N[C@@H](CCC(N)=O)C(=O)N2 [Compound 149, [(3-Aminomethyl)benzoyl](1c)*SC(2a)WQC(2a)][Y(2-aminoethoxy)][2-Nal][2-Me-Leu]E(1c)R[3-(3-Quinolinyl)-Ala]-[NH2]] ([3Amb]SCWQC[AEF][2Nal][αMeL]ER[Ala(quinolin-3-yl)]-NH2; linker 3-6 via CH2COCH2; lactam N-10)
7 | 0.597 nM | CC(C)C[C@]1(C)NC(=O)[C@H](Cc2ccc3ccccc3c2)NC(=O)[C@H](Cc2ccc(OCCN)cc2)NC(=O)[C@@H]2CSCC(=O)CSC[C@H](NC(=O)[C@H](CO)NC(=O)c3cccc(c3)CNC(=O)CC[C@@H](C(=O)N[C@@H](CCCNC(=N)N)C(=O)N[C@H](Cc3cccnc3)C(N)=O)NC1=O)C(=O)N[C@@H](Cc1c[nH]c3ccccc13)C(=O)N[C@@H](CCC(N)=O)C(=O)N2 [Compound 150, [(3-Aminomethyl)benzoyl](1c)*SC(2a)WQC(2a)][Y(2-aminoethoxy)][2-Nal][2-Me-Leu]E(1c)R[{d}[3-(3-Pyridyl)-Ala]]-[NH2]] ([3Amb]SCWQC[AEF][2Nal][αMeL]ER[d3Pal]-NH2; linker 3-6 via CH2COCH2; lactam N-10)
8 | 0.672 nM | CC(C)C[C@]1(C)NC(=O)[C@H](Cc2ccc3ccccc3c2)NC(=O)[C@H](Cc2ccc(OCCN)cc2)NC(=O)[C@@H]2CSCC(=O)CSC[C@H](NC(=O)[C@H](CO)NC(=O)c3cccc(c3)CNC(=O)CC[C@@H](C(=O)N[C@@H](CCCNC(=N)N)C(=O)N[C@H](CC(N)=O)c3cccnc3)NC1=O)C(=O)N[C@@H](Cc1c[nH]c3ccccc13)C(=O)N[C@@H](CCC(N)=O)C(=O)N2 [Compound 151, [(3-Aminomethyl)benzoyl](1c)*SC(2a)WQC(2a)][Y(2-aminoethoxy)][2-Nal][2-Me-Leu]E(1c)R[3-Amino-3-(3′-pyridyl)propionyl]-[NH2]] ([3Amb]SCWQC[AEF][2Nal][αMeL]ER-X22; linker 3-6 via CH2COCH2; lactam N-10)
9 | 0.0157 nM | CC[C@H](C)[C@@H]1NC(=O)c2cccc(c2)CNC(=O)CC[C@@H](C(=O)N[C@@H](CCN)C(=O)N[C@@H](Cc2cccnc2)C(N)=O)NC(=O)[C@](C)(C(C)C)NC(=O)[C@H](Cc2ccc3ccccc3c2)NC(=O)[C@H](Cc2ccc(OCCN)cc2)NC(=O)[C@@H]2CCNC(=O)CC[C@H](NC1=O)C(=O)N[C@@H](Cc1c[nH]c3ccccc13)C(=O)N[C@@H](CCC(N)=O)C(=O)N2 [Compound 156, [(3-Aminomethyl)benzoyl](1c)*IE(2c)WQ[Dab](2c)[Y(2-aminoethoxy)][2-Nal][2-Me-Val]E(1c)[Dab][3-(3-Pyridyl)-Ala]-[NH2]] ([3Amb]IEWQ[Dab][AEF][2Nal][αMeV]E[Dab][3Pal]-NH2; lactam 3-6, N-10)
